Laboratory results from patent publication US20180327367A1, “MACROCYCLIC BROAD SPECTRUM ANTIBIOTICS” (priority 2015, published 2018).
≈ marks a conversion by molar mass, not a printed value. Read-outs that look alike come from different tables or passages of the source.

Legend:
Type in all cases: cell-based
[1] = system: Methicillin Resistant Staphylococcus aureus strain USA 300, NRS384; experiment: Minimum inhibitory concentration, broth micro-dilution (CLSI), S. aureus; settings: Staphylococcus aureus, MRSA / NRS 384 / USA300, 22 h
Experimental: (§1) In vitro antimicrobial activity of each compound was determined by measuring minimal inhibitor concentrations (MICs) using the broth micro-dilution technique as approved by the Clinical and Laboratory Standards Institute (CLSI) (Methods for Dilution Antimicrobial Susceptibility Tests for Bacteria that Grow Aerobically; Approved Standard—Eighth Edition. CLSI document M07-A8. Wayne, Pa.: Clinical and Laboratory Standards; 2009). Antibacterial activity was measure against three strains of bacteria: a Methicillin Resistant Staphylococcus aureus strain USA 300, NRS384 (S. aureus); a strain of Escherichia coli MC4100 harboring the IMP4213 (E. coli IMP), which results in increased outer-membrane permeability (B Martin and Silhavy T. Imp/OstA is required for cell envelope biogenesis in Escherichia coli. (2002) Molecular Microbiology, 45(5), 1289-1302), and Escherichia coli ATCC 25922 (E. coli), a clinically relevant Gram-negative strain. Cells were inoculated onto plates of Trypyticase Soy Agar or Luria Agar respectively and grown at 35° C. for 20 hours. Inocula suspensions were prepared by scraping cells into 1 mL of testing media (cation adjusted Mueller Hinton Broth supplemented with 0.002% v/v Tween-80) and diluting to a final OD600 nm of 0.01.
(§2) Test compounds were prepared in DMSO at a concentration of 10 mg/mL. […] In protocol 2, the compound stocks were diluted into testing media at a concentration of 4 μg/mL and serial 2-fold dilutions were made in the same media, in 96-well U bottom microtiter dishes, for a total of 10 compound concentrations. In protocol 3, compound stocks were diluted into testing media at a concentration of 0.5 μg/mL, with serial 2-fold dilutions conducted as described above. […] Inocula suspensions were added to the 2-fold serial dilutions of test compounds to a final density of OD OD600 nm of 0.0005 and incubated at 35° C. for 22 hours.

[2] = system: Escherichia coli MC4100 harboring the IMP4213 (E. coli IMP); experiment: microbe, parasite or virus in culture; settings: Escherichia coli, 22 h
Experimental: as §1, §2

[3] = system: Escherichia coli ATCC 25922; experiment: Minimum inhibitory concentration, broth micro-dilution (CLSI), E. coli; settings: Escherichia coli, ATCC25922, 22 h
Experimental: Cells were inoculated onto plates of Trypyticase Soy Agar or Luria Agar respectively and grown at 35° C. for 20 hours. Inocula suspensions were prepared by scraping cells into 1 mL of testing media (cation adjusted Mueller Hinton Broth supplemented with 0.002% v/v Tween-80) and diluting to a final OD600 nm of 0.01.
as §2

[4] = read-out: MIC (μg/mL) S. aureus
[5] = read-out: MIC (μg/mL) E. coli IMP
[6] = MRSA USA 300 NRS384, 35° C., 22 hours, read-out: MIC (μg/mL) S. aureus
[7] = read-out: MIC (μg/mL) E. coli IMP, E. coli MC4100 IMP4213, increased outer-membrane permeability, 35° C., 22 hours
[8] = E. coli ATCC 25922, 35° C., 22 hours, read-out: MIC (μg/mL) E. coli

Compound | MIC [1, 4] [µg/mL] | MIC [2, 5] [µg/mL] | MIC ([3]; read-out: MIC (μg/mL) E. coli) [µg/mL] | MIC [1, 6] [µg/mL] | MIC [2, 7] [µg/mL] | MIC [3, 8] [µg/mL] | MIC ([1]; read-out: MIC (μg/mL) S. aureus, MRSA USA 300 NRS384, 35° C., 22 hours) [µg/mL] | MIC ([3]; read-out: MIC (μg/mL) E. coli, E. coli ATCC 25922, 35° C., 22 hours) [µg/mL]
Cc1nc(-c2ccc(C(C)(C)C)cc2)ncc1C(=O)N[C@@H](CCCN)C(=O)N(C)[C@@H]1C(=O)N[C@@H](C)C(=O)N[C@H](C(=O)NCC#N)Cc2ccc(OCCN)c(c2)-c2cc1ccc2OCCN [Compound 153] | 0.023 (≈ 0.0254 µM) | 0.0059 (≈ 0.00653 µM) | 0.19 (≈ 0.21 µM) | – | – | – | – | –
CCCCCCCc1ccc(C(=O)N[C@@H](CCN)C(=O)N(C)[C@@H]2C(=O)N[C@@H](C)C(=O)N[C@H](C(=O)NCC#N)Cc3ccc(O)c(c3)-c3cc2ccc3OCCN)c(C)c1 [Compound 314] | – | – | – | 0.078 (≈ 0.0962 µM) | 0.023 (≈ 0.0284 µM) | 0.44 (≈ 0.543 µM) | – | –
CCCCCCCCCCCCCC(=O)N[C@@H](CCN)C(=O)N(C)[C@@H]1C(=O)N[C@@H](C)C(=O)N[C@H](C(=O)NCC#N)Cc2ccc(OCC(=O)O)c(c2)-c2cc1ccc2OCCN [Compound 327] | – | – | – | 0.25 (≈ 0.29 µM) | 0.0078 (≈ 0.00904 µM) | 2 (≈ 2.32 µM) | – | –
Cc1cc(-c2ccc(CC(C)C)cc2)ccc1C(=O)N[C@@H](CC(N)=O)C(=O)N(C)[C@@H]1C(=O)N[C@@H](C)C(=O)N[C@H](C(=O)NCC#N)Cc2ccc(OCCN)c(c2)-c2cc1ccc2OCCN [Compound 240] | – | – | – | 0.19 (≈ 0.211 µM) | 0.094 (≈ 0.104 µM) | 1.5 (≈ 1.66 µM) | – | –
C[C@@H]1NC(=O)[C@@H](N(C)C(=O)[C@H](CCN)NC(=O)c2ccc3ccccc3c2)c2ccc(OCCN)c(c2)-c2cc(ccc2OCCN)C[C@@H](C(=O)NCC#N)NC1=O [Compound 125] | – | – | – | 2 (≈ 2.53 µM) | 0.25 (≈ 0.316 µM) | 16 (≈ 20.2 µM) | – | –
CCCCCCCCCC(=O)N[C@H](C(=O)N[C@@H](CCN)C(=O)N(C)[C@@H]1C(=O)N[C@@H](C)C(=O)N[C@H](C(=O)NCC#N)Cc2ccc(OCCN)c(c2)-c2cc1ccc2OCCN)C(C)O (single isomer, unassigned) [Compound 357-P1] | – | – | – | – | 0.5 (≈ 0.56 µM) | – | 0.5 (≈ 0.56 µM) | 64 (≈ 71.7 µM)
CCCCCCCCc1ccc(C(=O)N[C@@H](CCN)C(=O)N(C)[C@@H]2C(=O)N[C@@H](C)C(=O)N[C@H](C(=O)NCC#N)Cc3ccc(OCCN)c(c3)-c3cc2ccc3OCCN)c(CCC(N)=O)c1 [Compound 451] | – | – | – | 0.023 (≈ 0.0249 µM) | 0.016 (≈ 0.0173 µM) | 2 (≈ 2.16 µM) | – | –
Cc1cc(-n2cccn2)ccc1C(=O)N[C@@H](CCN)C(=O)N(C)[C@@H]1C(=O)N[C@@H](C)C(=O)N[C@H](C(=O)NCC#N)Cc2ccc(OCCN)c(c2)-c2cc1ccc2OCCN [Compound 411] | 2 (≈ 2.43 µM) | 0.5 (≈ 0.608 µM) | 16 (≈ 19.5 µM) | – | – | – | – | –
C[C@@H]1NC(=O)[C@@H](N(C)C(=O)[C@H](CCCCN)NC(=O)c2ccc(-c3ccc(Cl)cc3)cc2)c2ccc(O)c(c2)-c2cc(ccc2O)C[C@@H](C(=O)N[C@@H](C)C#N)NC1=O [Compound 417] | – | – | – | 13 (≈ 16.1 µM) | 4 (≈ 4.95 µM) | > 64 | – | –
CCc1ccc(-c2ncc(C(=O)N[C@@H](CCN)C(=O)N(C)[C@@H]3C(=O)N[C@@H](C)C(=O)N[C@H](C(=O)NCC#N)Cc4ccc(O)c(c4)-c4cc3ccc4OCCN)c(C)n2)cc1 [Compound 505] | – | – | – | 0.25 (≈ 0.305 µM) | 0.016 (≈ 0.0195 µM) | 2 (≈ 2.44 µM) | – | –
Cc1cc(C2CC(c3ccccc3)C2)ccc1C(=O)N[C@@H](CCN)C(=O)N(C)[C@@H]1C(=O)N[C@@H](C)C(=O)N[C@H](C(=O)NCC#N)Cc2ccc(OCCN)c(c2)-c2cc1ccc2OCCN (stereo partly drawn) [Compound 441] | – | – | – | 0.063 (≈ 0.0711 µM) | 0.016 (≈ 0.0181 µM) | 1 (≈ 1.13 µM) | – | –
C[C@@H]1NC(=O)[C@@H](N(C)C(=O)[C@H](CCN)NC(=O)CCCc2ccc(F)cc2)c2ccc(OCCN)c(c2)-c2cc(ccc2OCCN)C[C@@H](C(=O)NCC#N)NC1=O [Compound 493] | – | – | – | 3 (≈ 3.74 µM) | 2 (≈ 2.49 µM) | > 64 | – | –
CCCCCCCCc1ccc(C(=O)N[C@H](C)C(=O)N(C)[C@@H]2C(=O)N[C@@H](C)C(=O)N[C@H](C(=O)NCC#N)Cc3ccc(OCCN)c(c3)-c3cc2ccc3OCCN)c(C)c1 [Compound 251] | – | – | – | 4 (≈ 4.77 µM) | 4 (≈ 4.77 µM) | 8 (≈ 9.53 µM) | – | –
